The values below are quoted from earlier work in patent publication US20150290251A1, “USE OF EGGSHELL MEMBRANE FORMULATIONS TO ALLEVIATE JOINT PAIN” (U.S. NUTRACEUTICALS, LLC d/b/a Valensa International, priority 2009, published 2015).

The conditions of data set [1]: compared with alpha-tocopherol.
In another data set the test system is NO, PGE-2 and TNF-Alpha. Particulars: induced uveitis; suppression of NO, PGE-2 and TNF-Alpha by directly blocking NO synthase activity.
For another data set, the system named is C-Reactive Protein (CRP). The settings on record: human subjects with high risk levels of CRP; three months of treatment.
Data set [2] relates to cellular membrane lipid peroxidation.
The test system of another data set is lens epithelial cells. Particulars: in vitro lens epithelial cells; umol/L concentrations.
The conditions of data set [3]: human trials; 4 mgs/day; compared to untreated subjects.

With `CC1=C(/C=C/C(C)=C/C=C/C(C)=C/C=C/C=C(C)/C=C/C=C(C)/C=C/C2=C(C)C(=O)C(O)CC2(C)C)C(C)(C)CC(O)C1=O` (stereo not drawn) [Astaxanthin, 3,3′-dihydroxy-β, β-carotene-4, 4′dione], the “ability to quench singlet oxygen relative to alpha-tocopherol” value in data set [1] is “over five hundred times”. Moreover, the ocular anti-inflammatory activity entry in the data set on NO, PGE-2 and TNF-Alpha is “dose dependent ocular anti-inflammatory activity”. Also, in the data set on C-Reactive Protein (CRP), the “patients whose serum CRP levels dropped below the risk level” value was 43 % of patients. Also, in data set [2], the “effect on pro-oxidant activity of Vioxx” value was “completely negates”. The “suppression of UVB induced lipid peroxidative mediated cell damage” value in the data set on lens epithelial cells was “dramatically suppresses”. In addition, the “prevention of joint pain following strenuous knee exercise” value in data set [3] is “completely prevented”.
